# Tests used:
# Test in all cases: relative viability (nuclei count vs DMSO), 5 days (fraction); higher = more cells survive
# Metformin + Vorinostat = compound: CN(C)C(=N)NC(=N)N [Metformin] + O=C(CCCCCCC(=O)Nc1ccccc1)NO [Vorinostat] (partner 1 µM)
# How it was run: (§1)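 Cells from lung cancer lines were seeded into 1536-well plates and, one day later, dosed by pin tool. Treatments were either a single drug or a fixed dose of an anchor drug with five library-drug doses (not always all listed) in √10 steps. After 5 days, nuclei were stained in a one-step fixation (final 0.05% Triton X-100, 1% formaldehyde, 1 ug/ml Hoechst) and counted on 4× images, and relative viability is the treated-to-vehicle nuclei ratio, as the median of duplicate plates.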
# Apatinib + Dasatinib = compound: N#CC1(c2ccc(NC(=O)c3cccnc3NCc3ccncc3)cc2)CCCC1 [Apatinib] + Cc1nc(Nc2ncc(C(=O)Nc3c(C)cccc3Cl)s2)cc(N2CCN(CCO)CC2)n1 [Dasatinib] (partner 0.075 µM)
# How it was run: as §1
# Apatinib + Decitabine = compound: N#CC1(c2ccc(NC(=O)c3cccnc3NCc3ccncc3)cc2)CCCC1 [Apatinib] + Nc1ncn([C@H]2C[C@H](O)[C@@H](CO)O2)c(=O)n1 [Decitabine] (partner 2 µM)
# How it was run: as §1
# Apatinib + Vorinostat = compound: N#CC1(c2ccc(NC(=O)c3cccnc3NCc3ccncc3)cc2)CCCC1 [Apatinib] + O=C(CCCCCCC(=O)Nc1ccccc1)NO [Vorinostat] (partner 1 µM)
# How it was run: as §1
Cell Line,relative viability (Metformin + Vorinostat; first compound 10 µM),relative viability (Metformin + Vorinostat; first compound 31.62 µM),relative viability (Metformin + Vorinostat; first compound 100 µM),relative viability (Metformin + Vorinostat; first compound 316.23 µM),relative viability (Metformin + Vorinostat; first compound 1000 µM),relative viability (Apatinib + Dasatinib; first compound 0.08 µM),relative viability (Apatinib + Dasatinib; first compound 0.253 µM),relative viability (Apatinib + Dasatinib; first compound 0.8 µM),relative viability (Apatinib + Dasatinib; first compound 2.53 µM),relative viability (Apatinib + Dasatinib; first compound 8 µM),relative viability (Apatinib + Decitabine; first compound 0.08 µM),relative viability (Apatinib + Decitabine; first compound 0.253 µM),relative viability (Apatinib + Decitabine; first compound 0.8 µM),relative viability (Apatinib + Decitabine; first compound 2.53 µM),relative viability (Apatinib + Decitabine; first compound 8 µM),relative viability (Apatinib + Vorinostat; first compound 0.08 µM),relative viability (Apatinib + Vorinostat; first compound 0.253 µM),relative viability (Apatinib + Vorinostat; first compound 0.8 µM),relative viability (Apatinib + Vorinostat; first compound 2.53 µM),relative viability (Apatinib + Vorinostat; first compound 8 µM)
SK-MES-1,0.839,1.03,1.11,0.919,0.99,0.368,0.323,0.38,0.348,0.307,0.404,0.36,0.488,0.975,0.903,1.18,1.14,1.04,0.961,0.928
NCI-H2170,0.55,0.777,0.79,0.813,0.795,0.551,0.447,0.489,0.464,0.572,0.476,0.494,0.461,0.518,0.508,0.881,0.751,0.792,0.718,0.775
NCI-H1648,,0.5,1.07,0.703,0.91,,,,,,0.66,0.502,0.479,0.428,0.508,0.682,0.503,0.403,0.54,0.276
NCI-H1915,,0.499,0.498,0.46,0.517,0.323,0.32,0.293,0.321,0.36,0.296,0.266,0.265,0.339,0.388,0.578,0.519,0.495,0.37,0.314
HCC-366,0.201,0.431,0.282,0.326,0.472,0.661,0.559,0.565,0.647,0.601,0.395,0.365,0.309,0.353,0.432,0.437,0.386,0.329,0.205,0.193
HOP-62,0.425,0.705,0.699,0.456,0.738,0.732,0.699,0.689,0.571,0.589,0.221,0.212,0.2,0.428,0.519,0.613,0.679,0.567,0.476,0.323
RERF-LC-KJ,0.564,0.745,0.634,0.534,0.612,0.859,0.897,0.754,0.615,0.52,0.755,0.7,0.637,0.66,0.746,0.625,0.72,0.63,0.695,0.577
NCI-H2347,0.602,0.619,0.71,0.575,0.599,0.343,0.26,0.371,0.276,0.352,0.666,0.592,0.67,0.674,0.804,0.655,0.569,0.619,0.542,0.557
PC-14,0.618,0.598,0.567,0.415,0.533,0.284,0.238,0.203,0.208,0.178,0.28,0.293,0.189,0.228,0.28,0.821,0.755,0.639,0.606,0.547
IA-LM,1.01,1.04,1.03,0.901,0.962,,,,,,,,,,,0.975,0.968,0.958,0.765,0.92
NCI-H727,1.1,1.16,1.13,,1.13,0.374,0.372,0.346,0.29,0.42,0.89,,0.973,0.985,0.729,1.18,,1.23,1.08,0.999
NCI-H1975,0.688,0.738,0.705,0.645,0.729,0.469,0.313,0.262,0.26,0.281,0.406,0.372,0.413,0.381,0.466,0.761,0.696,0.641,0.634,0.557
NCI-H2085,0.733,0.747,0.775,0.788,0.812,0.229,0.229,0.231,0.243,0.215,0.592,0.573,0.582,0.587,0.712,0.77,0.777,0.711,0.73,0.742
LC-2-ad,,0.64,0.657,0.596,0.803,0.718,0.774,0.511,0.391,0.4,0.862,0.776,0.792,0.668,0.698,0.735,0.753,0.721,0.633,0.665
SW 900,0.548,0.765,,0.457,0.682,0.699,0.429,0.545,0.476,0.491,0.417,0.479,0.447,0.562,0.652,0.577,0.586,0.482,0.355,0.454
HCC-827,0.483,0.84,1.02,0.776,0.943,0.287,0.326,0.273,0.236,0.231,0.345,0.335,0.363,0.322,0.327,0.859,0.777,0.817,0.654,0.855
EMC-BAC-2,0.474,0.417,,0.492,0.37,0.32,0.428,0.349,0.282,0.293,,0.967,0.925,0.954,1.01,,0.51,0.432,0.29,0.362
NCI-H322M,0.946,0.861,0.945,0.865,0.702,0.253,0.229,0.245,0.256,0.247,0.75,0.709,0.64,0.833,0.783,0.846,0.846,0.885,0.897,0.885
NCI-H650,0.425,0.413,0.405,0.556,0.533,0.37,0.435,0.483,0.444,0.403,0.35,0.331,0.332,0.418,0.626,0.494,0.422,0.391,0.264,0.42

Cell Line,relative viability (Metformin + Vorinostat; first compound 10 µM),relative viability (Metformin + Vorinostat; first compound 31.62 µM),relative viability (Metformin + Vorinostat; first compound 100 µM),relative viability (Metformin + Vorinostat; first compound 316.23 µM),relative viability (Metformin + Vorinostat; first compound 1000 µM),relative viability (Apatinib + Dasatinib; first compound 0.08 µM),relative viability (Apatinib + Dasatinib; first compound 0.253 µM),relative viability (Apatinib + Dasatinib; first compound 0.8 µM),relative viability (Apatinib + Dasatinib; first compound 2.53 µM),relative viability (Apatinib + Dasatinib; first compound 8 µM),relative viability (Apatinib + Decitabine; first compound 0.08 µM),relative viability (Apatinib + Decitabine; first compound 0.253 µM),relative viability (Apatinib + Decitabine; first compound 0.8 µM),relative viability (Apatinib + Decitabine; first compound 2.53 µM),relative viability (Apatinib + Decitabine; first compound 8 µM),relative viability (Apatinib + Vorinostat; first compound 0.08 µM),relative viability (Apatinib + Vorinostat; first compound 0.253 µM),relative viability (Apatinib + Vorinostat; first compound 0.8 µM),relative viability (Apatinib + Vorinostat; first compound 2.53 µM),relative viability (Apatinib + Vorinostat; first compound 8 µM)
NCI-H2126,0.739,0.704,0.752,0.694,0.872,0.584,0.514,0.52,0.488,0.446,0.589,0.637,0.666,0.566,0.547,0.86,0.717,0.671,0.768,0.755
NCI-H1395,0.855,1.24,0.819,0.868,0.414,0.412,0.399,0.367,0.349,0.378,0.747,0.808,0.781,0.744,0.859,0.772,0.815,0.64,0.535,0.605
NCI-H1355,0.597,0.522,0.632,0.589,0.609,0.682,0.791,0.687,0.621,0.614,0.35,0.349,0.39,0.367,0.447,0.677,0.703,0.616,0.515,0.569
NCI-H1792,,,,,,0.965,0.789,0.763,0.573,0.512,0.596,0.55,0.544,0.591,0.609,,,,,
NCI-H596,0.691,0.854,0.674,0.596,0.784,0.634,0.564,0.556,0.564,0.555,1,1.18,0.916,1.04,1.08,0.703,0.58,0.672,0.492,0.546
NCI-H23,0.618,0.574,0.653,0.561,0.848,0.799,0.837,0.694,0.727,0.611,0.32,0.333,0.304,0.332,0.475,0.696,0.793,0.568,0.491,0.524
HCC-15,0.84,0.849,0.959,0.77,0.95,0.686,0.626,0.605,0.574,0.63,0.703,0.656,0.638,0.604,0.606,0.9,0.876,0.871,0.887,0.706
HCC-44,,1.02,1.09,1.06,1.03,,,,,,0.963,0.929,0.887,0.95,0.89,1.07,1.07,1.08,1.01,0.934
COR-L23,0.312,0.304,0.406,0.288,0.362,0.469,0.598,0.518,0.45,0.405,0.514,0.509,0.452,0.427,0.413,0.516,0.461,0.333,0.415,0.427
HCC-78,,0.479,0.559,0.516,0.417,0.332,0.289,0.361,0.333,0.302,0.7,0.694,0.692,0.701,0.913,0.524,0.396,0.427,0.402,0.374
NCI-H1563,,,,,,0.444,0.41,0.406,0.475,0.451,,,,,,,,,,
UMC-11,0.471,0.452,0.483,0.377,0.406,0.518,0.515,0.42,0.442,0.394,0.711,0.64,0.575,0.714,0.629,0.403,0.397,0.366,0.349,0.341
NCI-H3122,0.459,0.942,0.87,0.807,0.775,0.858,0.666,0.836,0.845,0.538,0.505,0.431,0.44,0.495,0.433,0.995,0.968,1.07,0.734,0.895
BEN,0.56,0.728,0.64,0.494,0.625,0.251,0.27,0.245,0.242,0.265,0.694,0.668,0.672,0.693,0.723,0.584,0.62,0.609,0.589,0.536
NCI-H2228,0.843,0.672,0.825,0.597,0.635,0.538,0.533,0.518,0.387,0.295,,,,,,0.535,0.703,0.538,0.55,0.639
NCI-H1623,,,,,,0.438,0.598,0.493,0.545,0.595,,,,,,,,,,
A549,,,,,,,,,,,0.257,0.264,0.247,0.344,0.448,,,,,
CAL-12T,0.729,0.742,0.585,0.691,0.743,0.523,0.602,0.38,0.262,0.234,,,,,,0.941,1.02,0.741,0.794,0.765

# From the supplement of paper PMC10307832
